Activity calls are given as the source filed them. The rule behind the calls is not given here.
What was measured:
Androgen receptor [1] = target: T1, Androgen receptor (Homo sapiens, UniProt P10275); test: Inhibition of androgen receptor transcriptional activity in human LNCaP cells after 3 days by eGFP assay; type: cell-based
T1 sequence (P10275 whole entry): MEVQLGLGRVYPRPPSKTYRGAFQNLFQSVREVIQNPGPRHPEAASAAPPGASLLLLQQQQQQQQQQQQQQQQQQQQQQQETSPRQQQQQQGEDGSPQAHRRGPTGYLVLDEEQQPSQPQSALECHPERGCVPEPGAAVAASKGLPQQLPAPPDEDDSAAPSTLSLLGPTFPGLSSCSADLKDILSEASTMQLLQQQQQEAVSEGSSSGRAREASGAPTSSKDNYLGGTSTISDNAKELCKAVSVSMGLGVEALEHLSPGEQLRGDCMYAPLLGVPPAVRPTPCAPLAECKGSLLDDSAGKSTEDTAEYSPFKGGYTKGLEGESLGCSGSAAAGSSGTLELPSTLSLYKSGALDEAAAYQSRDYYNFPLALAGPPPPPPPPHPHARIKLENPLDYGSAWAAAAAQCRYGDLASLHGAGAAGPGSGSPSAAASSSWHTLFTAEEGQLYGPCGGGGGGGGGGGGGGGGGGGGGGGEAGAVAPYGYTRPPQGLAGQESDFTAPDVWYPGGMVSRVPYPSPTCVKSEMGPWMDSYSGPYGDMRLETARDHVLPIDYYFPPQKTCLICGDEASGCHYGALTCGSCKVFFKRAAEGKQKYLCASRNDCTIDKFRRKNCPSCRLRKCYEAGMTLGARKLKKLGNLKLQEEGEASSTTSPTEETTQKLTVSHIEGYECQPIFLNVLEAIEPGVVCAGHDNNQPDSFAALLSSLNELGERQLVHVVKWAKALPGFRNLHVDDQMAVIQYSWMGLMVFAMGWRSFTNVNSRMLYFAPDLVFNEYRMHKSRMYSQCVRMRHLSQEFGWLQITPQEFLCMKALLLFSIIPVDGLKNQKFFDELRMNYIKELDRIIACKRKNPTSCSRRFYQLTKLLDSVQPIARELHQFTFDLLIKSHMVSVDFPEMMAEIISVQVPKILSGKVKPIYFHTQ

Androgen receptor [2] = target: T1, Androgen receptor; test: Inhibition of androgen receptor in human LNCaP cells assessed as inhibition of prostate-specific antigen secretion into media after 3 days; type: cell-based
[3] = Stability of the compound in RPMI plus 5% charcoal stripped serum media after 1 hr by MS analysis; type: physicochemical
LNCaP = test: Growth inhibition of AR-dependent human LNCAP cells at 0.001 to 3 uM after 3 days by MTS assay; type: functional, cell-based
[4] = Growth inhibition of AR-negative human PC3 cells after 3 days by MTS assay; type: cell-based; settings: pc-3, 72 h

Compound: Clc1ccc(-c2csc(N3CCOCC3)n2)c(Cl)c1
- IC50 (Androgen receptor [1]): 1660 nM
- IC50 (Androgen receptor [2]): 1320 nM

Compound: Oc1cc(F)ccc1-c1csc(N2CCOCC2)n1
- IC50 (Androgen receptor [1]): 1190 nM
- IC50 (Androgen receptor [2]): 810 nM

Compound: Cc1scc(-c2csc(N3CCOCC3)n2)c1C
- IC50 (Androgen receptor [1]): 250 nM
- IC50 (Androgen receptor [2]): 430 nM

Compound: c1ccc(-c2csc(N3CCOCC3)n2)nc1
- IC50 (Androgen receptor [1]): 2580 nM

Compound: Clc1ccc(-c2csc(N3CCOCC3)n2)cc1Cl
- IC50 (Androgen receptor [1]): 3320 nM
- IC50 (Androgen receptor [2]): 2960 nM

Compound: CS(=O)(=O)c1c(F)cccc1-c1csc(N2CCOCC2)n1
- IC50 (Androgen receptor [1]): 3560 nM

Compound: FC(F)(F)[C@H]1CN(c2nc(-c3ccccc3)cs2)CCO1
- IC50 (Androgen receptor [1]): 1650 nM
- IC50 (Androgen receptor [2]): 160 nM

Compound: Cc1sc(N2CCOCC2)nc1-c1ccccc1
- IC50 (Androgen receptor [1]): 1460 nM

Compound: Fc1ccc(-c2csc(-c3ccncc3)n2)cc1
- IC50 (Androgen receptor [1]): 1270 nM

Compound: OCc1sc(N2CCOCC2)nc1-c1ccccc1
- IC50 (Androgen receptor [1]): 5040 nM

Compound: Clc1cn(-c2csc(N3CCOCC3)n2)cn1
- IC50 (Androgen receptor [1]): 960 nM
- IC50 (Androgen receptor [2]): 720 nM

Compound: Oc1ccc(-c2ccc3ccccc3n2)cc1
- IC50 (Androgen receptor [1]): 9840 nM

Compound: Oc1c(-c2csc(N3CCOCC3)n2)ccc(F)c1F
- IC50 (Androgen receptor [1]): 800 nM
- IC50 (Androgen receptor [2]): 700 nM

Compound: c1cc(-c2csc(N3CCOCC3)n2)ccn1
- IC50 (Androgen receptor [1]): 2940 nM

Compound: Fc1ccc(-c2csc(N3CCOCC3)n2)cc1
- IC50 (Androgen receptor [1]): 650 nM
- IC50 (Androgen receptor [2]): 410 nM

Compound: Clc1ncn(-c2csc(N3CCOCC3)n2)c1I
- IC50 (Androgen receptor [1]): 2610 nM
- IC50 (Androgen receptor [2]): 4020 nM

Compound: COc1c(F)cc(O)cc1-c1csc(N2CCOCC2)n1
- IC50 (Androgen receptor [1]): 3020 nM

Compound: Clc1ncn(-c2csc(N3CCOCC3)n2)c1Cl
- IC50 (Androgen receptor [1]): 680 nM
- IC50 (Androgen receptor [2]): 570 nM
- Stability [3]: Stable

Compound: N#Cc1ccc(-c2ccc(N3CCOCC3)s2)cc1
- IC50 (Androgen receptor [1]): 1440 nM
- IC50 (Androgen receptor [2]): 890 nM

Compound: CNc1nc(-c2ccc3ccccc3c2)cs1
- IC50 (Androgen receptor [1]): 3170 nM
- IC50 (Androgen receptor [2]): 3910 nM

Compound: c1cc(-c2csc(N3CCOCC3)n2)cs1
- IC50 (Androgen receptor [1]): 260 nM
- IC50 (Androgen receptor [2]): 220 nM

Compound: Brc1cn(-c2csc(N3CCOCC3)n2)cn1
- IC50 (Androgen receptor [1]): 2800 nM
- IC50 (Androgen receptor [2]): 1740 nM

Compound: c1ccc(-c2csc(N3CCCCC3)n2)cc1
- IC50 (Androgen receptor [1]): 1030 nM
- IC50 (Androgen receptor [2]): 690 nM

Compound: c1ccc2nc(-c3ccncc3)ccc2c1
- IC50 (Androgen receptor [1]): 4200 nM
- IC50 (Androgen receptor [2]): 2260 nM

Compound: Fc1ccc(-c2csc(N3CCSCC3)n2)cc1
- IC50 (Androgen receptor [1]): 1590 nM

Compound: Oc1ccc2nc(N3CCOCC3)sc2c1
- IC50 (Androgen receptor [1]): 7410 nM
- IC50 (Androgen receptor [2]): 8080 nM

Compound: Nc1nc(-c2ccc3ccccc3c2)cs1
- IC50 (Androgen receptor [1]): 9160 nM
- IC50 (Androgen receptor [2]): 10600 nM

Compound: CCc1sc(N2CCOCC2)nc1-c1ccccc1
- IC50 (Androgen receptor [1]): 5800 nM
- IC50 (Androgen receptor [2]): 8430 nM

Compound: Cc1cc(/C=C/c2ccc3cc(N(C)C)ccc3[n+]2C)c(C)n1-c1ccccc1
- growth inhibition (GI) (LNCaP): inactive

Compound: Cc1cc(C=Cc2ccc3cc(N(C)C)ccc3[n+]2C)c(C)n1-c1ccccc1.O=C([O-])c1cc2ccccc2c(Cc2c(O)c(C(=O)O)cc3ccccc23)c1O
- Activity [4]: Toxic

Compound: Cc1ncn(-c2csc(N3CCOCC3)n2)c1C
- IC50 (Androgen receptor [1]): 3560 nM
- IC50 (Androgen receptor [2]): 2420 nM

Compound: Ic1ncn(-c2csc(N3CCOCC3)n2)c1I
- IC50 (Androgen receptor [1]): 1730 nM
- IC50 (Androgen receptor [2]): 1810 nM
- Stability [3]: Stable

Compound: c1ccc(-c2ccc(N3CCOCC3)s2)cc1
- IC50 (Androgen receptor [1]): 520 nM
- IC50 (Androgen receptor [2]): 510 nM

Compound: COc1cc(F)ccc1-c1csc(N2CCOCC2)n1
- IC50 (Androgen receptor [1]): 300 nM
- IC50 (Androgen receptor [2]): 230 nM

Compound: Oc1ccc(-c2nc(-c3c[nH]c4ccccc34)cs2)cc1
- IC50 (Androgen receptor [1]): 5050 nM
- IC50 (Androgen receptor [2]): 6460 nM

Compound: FC(F)(F)c1cccc(-c2csc(N3CCOCC3)n2)c1
- IC50 (Androgen receptor [1]): 610 nM
- IC50 (Androgen receptor [2]): 580 nM

Compound: c1ccc(-c2csc(N3CCSCC3)n2)cc1
- IC50 (Androgen receptor [1]): 620 nM

Compound: Clc1ncn(-c2csc(N3CCOCC3)n2)c1Br
- IC50 (Androgen receptor [1]): 330 nM
- IC50 (Androgen receptor [2]): 440 nM

Compound: Oc1c(F)cccc1-c1csc(N2CCOCC2)n1
- IC50 (Androgen receptor [1]): 270 nM
- IC50 (Androgen receptor [2]): 150 nM

Compound: Clc1c(Br)ncn1-c1csc(N2CCOCC2)n1
- IC50 (Androgen receptor [1]): 1450 nM
- IC50 (Androgen receptor [2]): 1280 nM

Compound: c1ccc(-c2cc(N3CCOCC3)cs2)cc1
- IC50 (Androgen receptor [1]): 1240 nM
- IC50 (Androgen receptor [2]): 840 nM

Compound: Cc1ccc(C)c(-c2csc(N3CCOCC3)n2)c1
- IC50 (Androgen receptor [1]): 620 nM
- IC50 (Androgen receptor [2]): 520 nM

Compound: Nc1ccccc1-c1csc(N2CCOCC2)n1
- IC50 (Androgen receptor [1]): 1380 nM
- IC50 (Androgen receptor [2]): 2030 nM

Compound: c1ccc(-c2csc(-c3ccncc3)n2)cc1
- IC50 (Androgen receptor [1]): 1200 nM
- IC50 (Androgen receptor [2]): 630 nM

Compound: COc1c(-c2csc(N3CCOCC3)n2)ccc(F)c1F
- IC50 (Androgen receptor [1]): 180 nM
- IC50 (Androgen receptor [2]): 250 nM
